Data as given in patent US4518611A, “2-Furylbutyrolactone modulation of the immune system in mammals” (priority 1983, dated 1985).
Several values for one entry are separate records, joined by “and”; a condition that tells them apart may be missing. Equal values may be shown once. Read-outs that look alike come from different tables or passages of the source.

How the values were obtained:
CD-1 mice = conditions: 14 days
Experimental: (§1) Single oral dose LD50 in CD-1 mice and CD rats, obtained from Charles River U.K. Ltd., for Cpd. 1 is determined. […] Cpd. 1, dissolved in buffer, or just buffer is administered orally and the mice and rats are observed for 14 days after dosing. After 14 days, the animals are sacrificed and necropsy is performed to check for gross evidence of toxicity.

CD rats = conditions: 14 days
Experimental: as §1

BSA antibody response = system: BSA antibody response
Description: (§2) The effect of the compounds of this invention on the immune response to specific antigens involves immunization of mice with specific antigens such as bovine serum albumin (BSA) or keyhole limpet hemocyanin (KLH). Following immunization, it is possible to assess the cell-mediated or humoral (antibody) immune response to these antigens by various methods:
(§3) (2) Antibody response to soluble antigens such as BSA or KLH can be quantitated using a micro-ELISA solid phase heterogeneous immunoassay. The assay can be designed to quantitate class specific immunoglobulins (i.e., IgG or IgM).
The cut-off for the titer was the highest dilution of mouse serum yielding on O.D.≤0.1 when read on the MR-600 Dynatech micro-ELISA reader.
Mice of the C57BL/6 strain are given i.p. injections of either 50, 100, 200 or 400 mg/kg of Cpd. 1 or buffer for twelve days (days 1-12). An antigen, bovine serum albumin (BSA), is administered intraperitoneally with Freund's Complete Adjuvant (FCA) on days 1, 7 and 14. Blood samples are taken for assay of the antibody response on days 0, 5, 13, and 19.

FLC-745 target cells = experiment: MLTC assay of cytotoxic lymphocyte (CTL) activity, FLC-745 target cells; format: cell-based, mouse, DBA/2
Description: A mixed lymphocyte tumor culture (MLTC) immunoassay, used to determine the cytotoxic lymphocyte (CTL) activity employs lymphocytes from either immunized (sensitized) mice or DBA/2 tumor dormant state animals in various stages of the tumor dormant state (TDS). The assay employs L5178Y target cells labeled with ^51 Chromium and effector cells (sensitized lymphocytes) from the above-mentioned sources. Effector-target cell ratios will vary with different experimental conditions and may or may not include irradiated stimulator L5178Y cells. Results are expressed as % lysis of target cells based on ratio of cpm of test group over cpm of total release (maximum) both of which are corrected for spontaneous release of ^51 Cr. The assay can be performed as an 8 or 18 hour release assay.
An MLTC assay is performed to assess the CTL activity and tumor target cell specificity of Cpd. 1. Tumor dormant spleen cells and normal spleen cells of DBA/2 mice are used as effector cells. Irradiated L5178Y cells are used as stimulator cells. ^51 Cr-labeled L5178Y cells and FLC-745 cells are used as target cells. The effector/target ratios studied are 100:1, 30:1 and 10:1.

KLH antibody response = conditions: for increase of antibody titer over control (fold): 200 and 400 mg/kg
Description: as §2, §3
Mice of the C57BL/6 strain are given i.p. injections of either 50, 100, 200 or 400 mg/kg of Cpd. 1 or buffer for ten days (days 1-10). An antigen, keyhole limpet hemocyanin (KLH), is administered intraperitoneally with Freund's Complete Adjuvant (FCA) on days 1, 7, and 13. Blood samples are taken for assay of the antibody response on days 0, 5, 12, and 17. Spleens are removed, lymphocytes isolated and a lymphocyte stimulation assay with PHA, Con-A or KLH antigen as the mitogens is performed on day 17 of the experiment.

L-1210 leukemia cells = experiment: Treatment of L-1210 leukemia in BDF1 mice (T/C ratios); format: in vivo, mouse
Description: Mice of the BDF1 strain are given in i.p. inoculation of 10^6 L-1210 leukemia cells on day 0. Twenty-four hours later, groups of 7 mice each are started on a nine day treatment regimen of various doses of the compounds of this invention. The experiment is continued according to the guidelines provided under the National Cancer Institute protocol for screening new anti-cancer agents and T/C ratios (median or mean survival time of treated groups over median or mean survival time of controls) are calculated. A T/C value ≥1.25 (or 125%) is considered significant anticancer activity.
Mice of the BDF1 strain, inoculated with L-1210 leukemia cells, are treated for seven days with either 25, 50, 100, 200 or 400 mg/kg of Cpd. 1 or just buffer. The National Cancer Institute protocol for screening new anti-cancer agents is followed and T/C ratios are calculated.
Mice of the BDF1 strain, inoculated with L-1210 leukemia cells, are treated for seven days with either 100 mg/kg of Cpd. 1, 20 mg/kg of 5-flourouracil (5-FU), a known anti-cancer agent, or just buffer. The National Cancer Institute protocol for screening new anti-cancer agents is followed and T/C ratios are calculated.

Cc1ccc(C2(O)C(=O)OC3C(O)COC32O)o1.Cc1ccc(C2(O)C(=O)OC3C(O)COC32O)o1.O=C1CCC(=O)O1 (stereo not shown) [Cpd. 1, 2-furylbutyrolactone:succinic anhydride]
deaths or signs of toxicity (CD-1 mice; 5 g/kg oral): No deaths or signs of toxicity
LD50 (CD-1 mice; single oral dose): > 5000 mg/kg
deaths or signs of toxicity (CD rats; 5 g/kg oral): No deaths or signs of toxicity
LD50 (CD rats; single oral dose): > 5000 mg/kg
Micro-ELISA Titer (BSA antibody response; 50 mg/kg i.p., Day 5): N/R
Micro-ELISA Titer (BSA antibody response; 50 mg/kg i.p., Prebleed): N/R
antibody titer versus control (in words) (BSA antibody response; 50 mg/kg, day 19): A slight increase of antibody titer over the control
Micro-ELISA Titer (BSA antibody response; 100 mg/kg i.p., Day 5): N/R
Micro-ELISA Titer (BSA antibody response; 100 mg/kg i.p., Prebleed): N/R
Micro-ELISA Titer (BSA antibody response; 200 mg/kg i.p., Day 5): N/R
Micro-ELISA Titer (BSA antibody response; 200 mg/kg i.p., Prebleed): N/R
Micro-ELISA Titer (BSA antibody response; 400 mg/kg i.p., Day 5): N/R
Micro-ELISA Titer (BSA antibody response; 400 mg/kg i.p., Prebleed): N/R
antibody response versus control (in words) (BSA antibody response; 400 mg/kg, day 19): the antibody responses to BSA are equal at the 0 mg/kg and 400 mg/kg dose
stimulation of antibody response (in words) (BSA antibody response; 50 and 100 mg/kg, day 13): only a slight amount of stimulation
increase over controls of antibody titer (fold) (BSA antibody response; 100 and 200 mg/kg, day 19): 16 fold
stimulation of antibody response (fold) (BSA antibody response; 200 and 400 mg/kg, day 13): four-fold
% Lysis (FLC-745 target cells; E + D, E/T 10:1, TDS effectors, no stimulators): 0.7%
% Lysis (FLC-745 target cells; E + D, E/T 30:1, TDS effectors, no stimulators): 4.6%
% Lysis (FLC-745 target cells; E + D, E/T 100:1, TDS effectors, no stimulators): 6.6%
% Lysis (FLC-745 target cells; E + S + D, E/T 10:1, TDS effectors + stimulators): 0.5%
% Lysis (FLC-745 target cells; E + S + D, E/T 30:1, TDS effectors + stimulators): 3.6%
enhancement of CTL activity (in words) (FLC-745 target cells; FLC-745 target, TDS effectors with stimulator cells): This effect is not observed in the FLC-745 target control system
% Lysis (FLC-745 target cells; N + D, E/T 10:1, normal spleen cells, no stimulators): -3.5%
% Lysis (FLC-745 target cells; N + D, E/T 30:1, normal spleen cells, no stimulators): 0.9%
% Lysis (FLC-745 target cells; N + S + D, E/T 10:1, normal spleen cells + stimulators): -1.1%
% Lysis (FLC-745 target cells; N + S + D, E/T 30:1, normal spleen cells + stimulators): -0.8%
% Lysis (FLC-745 target cells; N + S + D, E/T 100:1, normal spleen cells + stimulators): 5.8%
Micro-ELISA Titer (KLH antibody response; 50 mg/kg i.p., Day 5): N/R
Micro-ELISA Titer (KLH antibody response; 50 mg/kg i.p., Prebleed): N/R
Micro-ELISA Titer (KLH antibody response; 100 mg/kg i.p., Day 5): N/R
Micro-ELISA Titer (KLH antibody response; 100 mg/kg i.p., Prebleed): N/R
Micro-ELISA Titer (KLH antibody response; 200 mg/kg i.p., Day 5): N/R
Micro-ELISA Titer (KLH antibody response; 200 mg/kg i.p., Prebleed): N/R
Micro-ELISA Titer (KLH antibody response; 400 mg/kg i.p., Day 5): N/R
Micro-ELISA Titer (KLH antibody response; 400 mg/kg i.p., Prebleed): N/R
increase of antibody titer over control (fold) (KLH antibody response; day 12): four-fold
increase of antibody titer over control (fold) (KLH antibody response; day 17): eight-fold
Median Survival Time (L-1210 leukemia cells; 25 mg/kg, seven days): 20 days
T/C (L-1210 leukemia cells; 25 mg/kg, seven days): 1.00
Median Survival Time (L-1210 leukemia cells; 50 mg/kg, seven days): 21 days
T/C (L-1210 leukemia cells; 50 mg/kg, seven days): 1.05
Median Survival Time (L-1210 leukemia cells; 100 mg/kg, seven days): 30 days
T/C (L-1210 leukemia cells; 100 mg/kg, seven days): 1.50 and 1.40
Median Survival Time (L-1210 leukemia cells; 100 mg/kg, seven days (Table 25)): 28
Median Survival Time (L-1210 leukemia cells; 200 mg/kg, seven days): 30 days
T/C (L-1210 leukemia cells; 200 mg/kg, seven days): 1.50
Median Survival Time (L-1210 leukemia cells; 400 mg/kg, seven days): 25 days
T/C (L-1210 leukemia cells; 400 mg/kg, seven days): 1.25
